From PubChem BioAssay AID651859 (Sanford-Burnham Center for Chemical Genomics, 2012)
The source made the active and inactive calls. How the calls were made is not given here.

These compounds were tested on cell viability, luminescent cytotoxicity assay (assay: cell-killing effect of antagonist analogs – luminescence, set 2, cytotoxicity control for Gli-SUFU antagonist project, SAR follow-up (AID 651859)).
In the case of O=C(Nc1cc(N2CCCCC2)ncn1)c1ccc(Cl)cc1, the IC50 was > 11.7 µM (inactive). For O=C(Nc1cc(N2CCNCC2)ncn1)c1ccccc1, the IC50 was > 11.7 µM (inactive). In the case of CCC(C)Nc1cc(NC(=O)c2ccccc2)ncn1 (stereo not drawn), the IC50 was > 11.7 µM (inactive). For N#Cc1ccc(C(=O)Nc2cc(N3CCCCC3)ncn2)cc1, the IC50 was > 11.7 µM (inactive). COc1ccccc1C(=O)Nc1cc(N2CCCCC2)ncn1 was tested, and the IC50 was > 11.7 µM (inactive). In the case of O=C(Nc1cc(N2CCCCC2)ncn1)c1cccc2ccccc12, the IC50 was > 11.7 µM (inactive). O=C(Nc1cc(NCC2CCCO2)ncn1)c1ccccc1 (stereo not drawn) was tested, and the IC50 was > 11.7 µM (inactive). With CC(C)(C)Nc1cc(NC(=O)c2ccccc2)ncn1 the IC50 was > 11.7 µM (inactive). O=C(Nc1cc(N2CCCCC2)ncn1)c1ccsc1 was tested, and the IC50 was > 11.7 µM (inactive). With CCOc1ccc(S(=O)(=O)NCc2ccncc2)cc1NC(=O)c1ccccc1 the IC50 was > 11.7 µM (inactive). With O=C(Nc1cc(N2CCCCC2)ncn1)c1cc2ccccc2s1 the IC50 was > 11.7 µM (inactive). O=C(Nc1cc(N2CCCCCC2)ncn1)c1ccccc1 was tested, and the IC50 was > 11.7 µM (inactive). For O=C(Nc1cc(N2CCCCC2)ncn1)c1ccc2ccccc2c1, the IC50 was > 11.7 µM (inactive). For N#Cc1cccc(C(=O)Nc2cc(N3CCCCC3)ncn2)c1, the IC50 was > 11.7 µM (inactive). With COc1cccc(C(=O)Nc2cc(N3CCCCC3)ncn2)c1 the IC50 was > 11.7 µM (inactive). With CC(C)CNc1cc(NC(=O)c2ccccc2)ncn1 the IC50 was > 11.7 µM (inactive). With O=C(Nc1cc(N2CCCCC2)ncn1)c1cccs1 the IC50 was > 11.7 µM (inactive). In the case of CCCCNc1cc(NC(=O)c2ccccc2)ncn1, the IC50 was > 11.7 µM (inactive). In the case of CCCCN(C)c1cc(NC(=O)c2ccccc2)ncn1, the IC50 was > 11.7 µM (inactive). For CC(C)(C)OC(=O)N1CCN(c2cc(NC(=O)c3ccccc3)ncn2)CC1, the IC50 was > 11.7 µM (inactive). With O=C(Nc1cc(N2CCOCC2)ncn1)c1ccccc1 the IC50 was > 11.7 µM (inactive). For O=C(Nc1cc(N2CCCCC2)ncn1)c1ccco1, the IC50 was > 11.7 µM (inactive). For CCOc1ccc(-c2nc(CSCC(=O)NC3CC3)c(C)o2)cc1, the IC50 was > 11.7 µM (inactive). Cc1ccc(C(=O)Nc2cc(N3CCCCC3)ncn2)cc1 was tested, and the IC50 was > 11.7 µM (inactive). For O=C(Nc1cc(N2CCCCC2)ncn1)c1ccc(C(F)(F)F)cc1, the IC50 was > 11.7 µM (inactive). In the case of CC1CCCCN1c1cc(NC(=O)c2ccccc2)ncn1 (stereo not drawn), the IC50 was > 11.7 µM (inactive). With O=C(Nc1cc(N2CCCCC2)ncn1)c1ccccc1C(F)(F)F the IC50 was > 11.7 µM (inactive). CC1CCN(c2cc(NC(=O)c3ccccc3)ncn2)CC1 was tested, and the IC50 was > 11.7 µM (inactive). O=C(Nc1cc(N2CCSCC2)ncn1)c1ccccc1 was tested, and the IC50 was > 11.7 µM (inactive). With O=C(Nc1cc(N2CCCCC2)ncn1)c1ccccc1 the IC50 was > 11.7 µM (inactive). For O=C(Nc1cc(N2CCCCC2)ncn1)c1ccccc1Cl, the IC50 was > 11.7 µM (inactive). CN1CCN(c2cc(NC(=O)c3ccccc3)ncn2)CC1 was tested, and the IC50 was > 11.7 µM (inactive). CC(C)Nc1cc(NC(=O)c2ccccc2)ncn1 was tested, and the IC50 was > 11.7 µM (inactive).
